Laboratory results from patent publication US20250230193A1, “CYCLIC COMPOUND HAVING SELECTIVE KRAS INHIBITORY EFFECT ON HRAS AND NRAS” (CHUGAI SEIYAKU KABUSHIKI KAISHA, priority 2022, published 2025).
pIC50, pKd: −log10 of the molar value. Like-named read-outs stand apart in the source and are kept apart here. *1 amine or outer side, *2 acyl side, *3 side chain or, on linkers, in order; H or OH if unused. Where a SMILES comes first, the peptide text is derived from it. Bridges are numbered along the chain shown (N, C = ends). [ ]: non-standard residue; d: D form. The star is where a group is joined. hPhe(3,5-F2-4-CF3) = N[C@@H](CCc1cc(F)c(C(F)(F)F)c(F)c1)C(=O)O; NPrPhe(4-CF3) = CCCN[C@@H](Cc1ccc(C(F)(F)F)cc1)C(=O)O; X1 = CN([C@@H](CCCC=[*:3])C(=O)[*:2])[*:1]; X2 = C[C@@](CC=[*:3])(N[*:1])C(=O)[*:2]; NMeGly(cPent) = CN[C@H](C(=O)O)C1CCCC1; Hyp = O=C(O)[C@@H]1C[C@@H](O)CN1; NMeD = CN[C@@H](CC(=O)O)C(=O)O; Morpholide = C1CN(*)CCO1; Sar = CNCC(=O)O

Columns and labels:
[1] = molecular target: GDP-bound KRAS wild-type protein (Homo sapiens, UniProt P01116); test: Binding to KRAS by surface plasmon resonance (SPR), Single Cycle Kinetics; conditions: GDP-bound KRAS wild-type protein
[2] = molecular target: GDP-bound NRAS wild-type protein (Homo sapiens, UniProt P01111); test: Binding to NRAS by surface plasmon resonance (SPR), Single Cycle Kinetics; conditions: SPR; for NRAS/KRAS (ratio of KD value with respect to NRAS to KD value with respect to KRAS): GDP-bound NRAS wild-type vs GDP-bound KRAS wild-type; for NRAS/KRAS (ratio of KD value for GDP-bound NRAS wild-type protein to KD value for KRAS): KD ratio class
Sequence of GDP-bound NRAS wild-type protein (P01111 whole entry): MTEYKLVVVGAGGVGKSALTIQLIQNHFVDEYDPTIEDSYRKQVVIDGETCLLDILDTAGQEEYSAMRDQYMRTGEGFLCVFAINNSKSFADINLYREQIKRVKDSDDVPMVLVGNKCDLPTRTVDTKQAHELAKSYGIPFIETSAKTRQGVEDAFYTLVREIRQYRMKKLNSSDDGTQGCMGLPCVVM

[3] = molecular target: GDP-bound HRAS wild-type protein (Homo sapiens, UniProt P01112); test: Binding to HRAS by surface plasmon resonance (SPR), Single Cycle Kinetics; conditions: SPR; for HRAS/KRAS (ratio of KD value with respect to HRAS to KD value with respect to KRAS): GDP-bound HRAS wild-type vs GDP-bound KRAS wild-type; for HRAS/KRAS (ratio of KD value for GDP-bound HRAS wild-type protein to KD value for KRAS): KD ratio class
Sequence of GDP-bound HRAS wild-type protein (P01112 whole entry): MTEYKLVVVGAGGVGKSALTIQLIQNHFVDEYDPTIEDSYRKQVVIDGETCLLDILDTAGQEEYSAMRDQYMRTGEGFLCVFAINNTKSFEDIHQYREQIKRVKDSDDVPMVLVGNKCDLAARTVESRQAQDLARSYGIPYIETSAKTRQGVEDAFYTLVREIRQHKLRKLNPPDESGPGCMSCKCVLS

[4] = system: human lung cancer strain NCI-H441
[5] = read-out: NCI-H441 IC50, NCI-H441 cells, 4 days, CellTiter-Glo

SMILES | pKd ([1]; SPR, Single Cycle Kinetics) | pIC50 [4] | pIC50 [4, 5] | pKd ([1]; SPR Single Cycle Kinetics, 1:1 binding model) | NRAS/KRAS (ratio of KD value with respect to NRAS to KD value with respect to KRAS) [2] | HRAS/KRAS (ratio of KD value with respect to HRAS to KD value with respect to KRAS) [3] | NRAS/KRAS (ratio of KD value for GDP-bound NRAS wild-type protein to KD value for KRAS) [2] | HRAS/KRAS (ratio of KD value for GDP-bound HRAS wild-type protein to KD value for KRAS) [3] | NRAS/KRAS (ratio of KD value with respect to GDP-bound NRAS wild-type protein to KD value with respect to KRAS) ([2]; KD ratio NRAS/KRAS) | HRAS/KRAS (ratio of KD value with respect to GDP-bound HRAS wild-type protein to KD value with respect to KRAS) ([3]; KD ratio HRAS/KRAS)
CCO[C@@H]1C[C@H]2C(=O)NC3(CCC3)C(=O)N(C)[C@@H](C3CCCC3)C(=O)N(CC)[C@H](C(=O)N(C)C)CC(=O)N(C)[C@@H](CC)C(=O)N[C@@H]([C@@H](C)CC)C(=O)N(C)CC(=O)N(C)[C@H]3CCCCCN(C3=O)[C@@H](Cc3ccc(F)cc3)C(=O)N(C)CC(=O)N[C@@H](CCc3cc(F)c(C(F)(F)F)c(F)c3)C(=O)N2C1 [PP0904] | 9.10 | 7.23 |  |  | B (a compound having 3 or more and less than 10 is denoted as B) | B (a compound having 3 or more and less than 10 is denoted as B) |  |  |  | 
CC[C@H](C)C1NC(=O)[C@H](CC(C)C)N(C)C(=O)C[C@@H](C(=O)N(C)C)N(C)C(=O)[C@H](C2CCCC2)N(C)C(=O)C2(CCCC2)NC(=O)C2CCCN2C(=O)[C@@H](CCc2ccc(C(F)(F)F)c(Cl)c2)NC(=O)CN(C)C(=O)[C@@H](Cc2ccc(C(F)(F)F)cc2)N2CC/C=C\CCN(CC2=O)C(=O)CN(C)C1=O (some centres unmarked) [PP0619] |  | 7.15 |  | 8.43 |  |  |  |  | C (A compound having a KD ratio of 0.1 or more and less than 3 is denoted as C) | C (A compound having a KD ratio of 0.1 or more and less than 3 is denoted as C)
CCCCCC[C@H]1C(=O)N[C@@H]([C@@H](C)CC)C(=O)N(C)CC(=O)N(C)[C@H]2C/C=C\CCN(C2=O)[C@@H](Cc2ccc(C(F)(F)F)cc2)C(=O)N(C)CC(=O)N[C@@H](CCc2ccc(C(F)(F)F)c(OC)c2)C(=O)N2C[C@H](OCC)C[C@H]2C(=O)NC2(CCC2)C(=O)N(C)[C@@H](C2CCCC2)C(=O)N(C)[C@H](C(=O)N(C)C)CC(=O)N1C [PP1246] | 10.09 |  | 8.05 |  |  |  | A (a compound having 10 or more and less than 20 is denoted as A) | A (a compound having 10 or more and less than 20 is denoted as A) |  | 
CCCN1C(=O)CN(C)C(=O)CN(C)C(=O)[C@H]([C@@H](C)CC)NC(=O)[C@@H]2CCC/C=C\C[C@](C)(NC(=O)[C@@H]3C[C@@H](OCC)CN3C(=O)[C@H](CCc3cc(F)c(C(F)(F)F)c(F)c3)NC(=O)CN(C)C(=O)[C@@H]1Cc1ccc(C(F)(F)F)cc1)C(=O)N(C)[C@@H](C1CCCC1)C(=O)N(C)[C@H](C(=O)N1CCOCC1)CC(=O)N2C [PP0901] ([X1]I[Sar][Sar][NPrPhe(4-CF3)][Sar][hPhe(3,5-F2-4-CF3)][Hyp](Et)[X2][NMeGly(cPent)][NMeD]-Morpholide; staple (Z) 1-9; lactam N-11) | 8.52 | 6.48 |  |  | B (a compound having 3 or more and less than 10 is denoted as B) | B (a compound having 3 or more and less than 10 is denoted as B) |  |  |  | 
CCO[C@@H]1C[C@H]2C(=O)NC3(CCC3)C(=O)N(C)[C@@H](C3CCCC3)C(=O)N(C)[C@H](C(=O)N(C)C)CC(=O)N(C)[C@@H](COCC(F)(F)F)C(=O)N[C@@H]([C@@H](C)CC)C(=O)N(C)CC(=O)N(C)[C@H]3C/C=C\CCN(C3=O)[C@@H](Cc3ccc(C(F)(F)F)cc3)C(=O)N(C)CC(=O)N[C@@H](CCc3cc(F)c(C(F)(F)F)c(F)c3)C(=O)N2C1 [PP1267] | 10.34 |  | 7.97 |  |  |  | A (a compound having 10 or more and less than 20 is denoted as A) | A (a compound having 10 or more and less than 20 is denoted as A) |  | 
CCO[C@@H]1C[C@H]2C(=O)NC3(CCC3)C(=O)N(C)[C@@H](C3CCCC3)C(=O)N(C)[C@H](C(=O)N(C)C)CC(=O)N(C)[C@@H](CC3CC3)C(=O)N[C@@H]([C@@H](C)CC)C(=O)N(C)CC(=O)N(C)[C@H]3C/C=C\CCN(C3=O)[C@@H](CC3CCC(F)(F)CC3)C(=O)N(C)CC(=O)N[C@@H](CCc3cc(F)c(C(F)(F)F)c(F)c3)C(=O)N2C1 [PP1447] | 9.92 |  | 7.54 |  |  |  | A (a compound having 10 or more and less than 20 is denoted as A) | A (a compound having 10 or more and less than 20 is denoted as A) |  | 
CC[C@H](C)[C@@H]1NC(=O)[C@H](C)N(C)C(=O)C[C@@H](C(=O)N(C)C)N(C)C(=O)[C@H](C2CCCC2)N(C)C(=O)C2(CCC2)NC(=O)[C@@H]2CCCN2C(=O)[C@H](CCc2cc(F)c(C(F)(F)F)c(F)c2)NC(=O)CN(C)C(=O)[C@H](Cc2ccc(C(F)(F)F)cc2)N2CC/C=C\C[C@@H](C2=O)N(C)C(=O)CN(C)C1=O [PP1271] | 10.27 |  | 7.04 |  |  |  | AA (a compound having 20 or more is denoted as AA) | A (a compound having 10 or more and less than 20 is denoted as A) |  | 
CCO[C@@H]1C[C@H]2C(=O)NC3(CCC3)C(=O)N(C)[C@@H](C3CCCC3)C(=O)N(CC)[C@H](C(=O)N3CCOCC3)CC(=O)N(C)[C@@H](CC)C(=O)N[C@@H]([C@@H](C)CC)C(=O)N(C)CC(=O)N(C)[C@H]3CCCCCN(C3=O)[C@@H](Cc3ccc(F)cc3)C(=O)N(C)CC(=O)N[C@@H](CCc3cc(F)c(C(F)(F)F)c(F)c3)C(=O)N2C1 [PP0905] | 9.10 | 7.04 |  |  | B (a compound having 3 or more and less than 10 is denoted as B) | B (a compound having 3 or more and less than 10 is denoted as B) |  |  |  | 
CCO[C@@H]1C[C@H]2C(=O)NC3(CCC3)C(=O)N(C)[C@@H](C3CCCC3)C(=O)N(C)[C@H](C(=O)N3CCCC3)CC(=O)N(C)[C@@H](CC3CC3)C(=O)N[C@@H]([C@@H](C)CC)C(=O)N(C)CC(=O)N(C)[C@H]3C/C=C\CCN(C3=O)[C@@H](Cc3ccc(C(F)(F)F)cc3)C(=O)N(C)CC(=O)N[C@@H](CCc3cc(F)c(C(F)(F)F)c(F)c3)C(=O)N2C1 [PP1296] | 9.92 |  | 7.83 |  |  |  | AA (a compound having 20 or more is denoted as AA) | A (a compound having 10 or more and less than 20 is denoted as A) |  | 

Second part, led by results:

pKd ([1]; SPR, Single Cycle Kinetics) | pIC50 [4] | pIC50 [4, 5] | pKd ([1]; SPR Single Cycle Kinetics, 1:1 binding model) | SMILES | NRAS/KRAS (ratio of KD value with respect to NRAS to KD value with respect to KRAS) [2] | HRAS/KRAS (ratio of KD value with respect to HRAS to KD value with respect to KRAS) [3] | NRAS/KRAS (ratio of KD value for GDP-bound NRAS wild-type protein to KD value for KRAS) [2] | HRAS/KRAS (ratio of KD value for GDP-bound HRAS wild-type protein to KD value for KRAS) [3] | NRAS/KRAS (ratio of KD value with respect to GDP-bound NRAS wild-type protein to KD value with respect to KRAS) ([2]; KD ratio NRAS/KRAS) | HRAS/KRAS (ratio of KD value with respect to GDP-bound HRAS wild-type protein to KD value with respect to KRAS) ([3]; KD ratio HRAS/KRAS)
8.74 |  | 7.06 |  | CCO[C@@H]1C[C@H]2C(=O)NC3(CCC3)C(=O)N(C)[C@@H](C(CC)CC)C(=O)N(C)C(C(C)C)CC(=O)N(C)[C@@H](CC)C(=O)N[C@@H]([C@@H](C)CC)C(=O)N(C)CC(=O)N(C)[C@H]3C/C=C\CCN(C3=O)[C@@H](Cc3ccc(C(F)(F)F)cc3)C(=O)N(C)CC(=O)N[C@@H](CCc3cc(F)c(C(F)(F)F)c(F)c3)C(=O)N2C1 (some centres unmarked) [PP1589] |  |  | A (a compound having 10 or more and less than 20 is denoted as A) | A (a compound having 10 or more and less than 20 is denoted as A) |  | 
10.09 |  | 7.63 |  | CCO[C@@H]1C[C@H]2C(=O)NC3(CCC3)C(=O)N(C)[C@@H](C3CCCC3)C(=O)N(C)[C@H](C(=O)N(C)C)CC(=O)N(C)[C@@H](CC(C)C)C(=O)N[C@@H]([C@@H](C)CC)C(=O)N(C)CC(=O)N(C)[C@H]3C/C=C\CCN(C3=O)[C@@H](Cc3ccc(F)cc3)C(=O)N(C)CC(=O)N[C@@H](CCc3cc(F)c(C(F)(F)F)c(F)c3)C(=O)N2C1 [PP1488] |  |  | A (a compound having 10 or more and less than 20 is denoted as A) | B (a compound having 3 or more and less than 10 is denoted as B) |  | 
9.89 |  | 7.35 |  | CCO[C@@H]1C[C@H]2C(=O)NC3(CCC3)C(=O)N(C)[C@@H](C3CCCC3)C(=O)N(C)[C@H](C(=O)N(C)C)CC(=O)N(C)[C@@H](CSC)C(=O)N[C@@H]([C@@H](C)CC)C(=O)N(C)CC(=O)N(C)[C@H]3C/C=C\CCN(C3=O)[C@@H](CC3CCCCC3)C(=O)N(C)CC(=O)N[C@@H](CCc3cc(F)c(C(F)(F)F)c(F)c3)C(=O)N2C1 [PP1463] |  |  | A (a compound having 10 or more and less than 20 is denoted as A) | A (a compound having 10 or more and less than 20 is denoted as A) |  | 
9.82 |  | 7.49 |  | CCC[C@H]1C(=O)N[C@@H]([C@@H](C)CC)C(=O)N(C)CC(=O)N(C)[C@H]2C/C=C\CCN(C2=O)[C@@H](CC2CCCCC2)C(=O)N(C)CC(=O)N[C@@H](CCc2cc(F)c(C(F)(F)F)c(F)c2)C(=O)N2C[C@H](OCC)C[C@H]2C(=O)NC2(CCC2)C(=O)N(C)[C@@H](C2CCCC2)C(=O)N(C)[C@H](C(=O)N(C)C)CC(=O)N1C [PP1464] |  |  | A (a compound having 10 or more and less than 20 is denoted as A) | A (a compound having 10 or more and less than 20 is denoted as A) |  | 
10.66 |  | 7.97 |  | CC[C@H](C)[C@@H]1NC(=O)[C@H](CC2CC2)N(C)C(=O)C[C@@H](C(=O)N(C)C)N(C)C(=O)[C@H](C2CCCC2)N(C)C(=O)C2(CCC2)NC(=O)[C@@H]2C[C@@H](F)CN2C(=O)[C@H](CCc2cc(F)c(C(F)(F)F)c(F)c2)NC(=O)CN(C)C(=O)[C@H](Cc2ccc(C(F)(F)F)cc2)N2CC/C=C\C[C@@H](C2=O)N(C)C(=O)CN(C)C1=O [PP1497] |  |  | A (a compound having 10 or more and less than 20 is denoted as A) | A (a compound having 10 or more and less than 20 is denoted as A) |  | 
